Results on one molecule are retold here after US12350458B2, “Apparatus and method for skin treatment” (Brain Tunnelgenix Technologies Corp., priority 2015, dated 2025).

The procedure of the data set:
Referring to FIG. 1, an epidermis 1506 and a dermis 1508 are collectively referred to as a superficial skin layer 1520 herein. An area of a skin 1500 where cold is applied is referred to herein as a cold site. […] Skin blood flow rate in both the cold site and normothermic site was measured using a laser Doppler perfusion imaging system. Studies also compared plasma concentration of drug 1510 in subjects at the cold site and the normothermic site. […] In one exemplary experiment skin blood flow was measured 15 min after application of cold, and every 15 min thereafter for a total of 3 hours.

As to `O=C(O)c1ccccc1O` [salicylic acid], the “concentration of drug in superficial skin layer of cold site, higher compared to normothermic site” value is “about 80%”. Also, under “human, in vivo”, the “plasma concentration at cold site, lower compared to normothermic site” value is listed as “about 60%” and the “plasma concentration, cold site” value is reported as “about 45 nmol/ml”.
